These results are taken from patent publication US9409966B2, “Glucagon-like peptide-1 derivatives and their pharmaceutical use” (priority 2007, dated 2016).

The target in test [1] is T1, human GLP-1 receptor (Homo sapiens, UniProt P43220).
T1 construct: expressed in transfected cells; host or cells: BHK467-12A (tk-ts13) baby hamster kidney cells; purified plasma membranes
Nature of the test: Stimulation of cAMP formation in a cell line expressing the cloned human GLP-1 receptor. The class given is biochemical. Background: cAMP levels reflect the balance of adenylyl cyclase and phosphodiesterase activity.

For test [2], the target named is human serum albumin (HSA) (Homo sapiens, UniProt P02768). Nature of the test: Albumin binding affinity, competition scintillation proximity assay (SPA). Background: SPA uses beads or plates that emit light when radiolabelled molecules are held near them.
human serum albumin (HSA), sequence (P02768 25-609): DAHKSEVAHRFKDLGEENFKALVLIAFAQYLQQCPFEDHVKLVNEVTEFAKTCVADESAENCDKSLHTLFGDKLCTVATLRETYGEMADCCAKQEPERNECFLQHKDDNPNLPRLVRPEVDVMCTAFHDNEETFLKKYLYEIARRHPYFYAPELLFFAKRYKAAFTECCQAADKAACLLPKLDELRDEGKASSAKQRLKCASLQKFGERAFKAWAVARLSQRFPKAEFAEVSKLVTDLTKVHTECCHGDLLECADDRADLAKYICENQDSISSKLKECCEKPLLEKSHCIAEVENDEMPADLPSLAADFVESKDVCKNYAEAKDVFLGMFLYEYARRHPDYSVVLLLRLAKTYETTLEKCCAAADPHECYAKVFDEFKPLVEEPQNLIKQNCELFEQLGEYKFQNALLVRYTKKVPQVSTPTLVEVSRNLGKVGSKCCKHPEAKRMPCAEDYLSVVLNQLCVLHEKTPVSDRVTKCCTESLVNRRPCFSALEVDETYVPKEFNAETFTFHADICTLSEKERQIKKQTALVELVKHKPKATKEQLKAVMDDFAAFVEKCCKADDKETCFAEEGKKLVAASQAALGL
Protocol: Streptavidin-SPA beads (GE Healthcare RPNQ0009) were incubated with biotinylated HSA for 5 hours. The beads were washed with buffer to remove unbound HSA. […] After 20 hours of gentle rocking at room temperature the plates were centrifuged and counted on a TopCounter.
[3] abbreviates: cAMP production, purified plasma membranes from BHK467-12A (tk-ts13), AlphaScreen cAMP Assay Kit, read-out: Potency [EC50/nM].

Read-outs that look alike come from different tables or passages of the source. *1 amine or outer side, *2 acyl side, *3 side chain or, on linkers, in order; H or OH if unused. Where a SMILES comes first, the peptide text is derived from it. Side-chain parts run from the residue outwards. [ ]: non-standard residue; d: D form. The star is where a group is joined. C18 diacid = O=C(O)CCCCCCCCCCCCCCCCC(=O)*; γGlu = O=C(O)[C@H](CCC(=O)[*:2])N[*:1]; AEEA = NCCOCCOCC(=O)O; Aib = CC(C)(N)C(=O)O

T1 sequence (P43220 24-463): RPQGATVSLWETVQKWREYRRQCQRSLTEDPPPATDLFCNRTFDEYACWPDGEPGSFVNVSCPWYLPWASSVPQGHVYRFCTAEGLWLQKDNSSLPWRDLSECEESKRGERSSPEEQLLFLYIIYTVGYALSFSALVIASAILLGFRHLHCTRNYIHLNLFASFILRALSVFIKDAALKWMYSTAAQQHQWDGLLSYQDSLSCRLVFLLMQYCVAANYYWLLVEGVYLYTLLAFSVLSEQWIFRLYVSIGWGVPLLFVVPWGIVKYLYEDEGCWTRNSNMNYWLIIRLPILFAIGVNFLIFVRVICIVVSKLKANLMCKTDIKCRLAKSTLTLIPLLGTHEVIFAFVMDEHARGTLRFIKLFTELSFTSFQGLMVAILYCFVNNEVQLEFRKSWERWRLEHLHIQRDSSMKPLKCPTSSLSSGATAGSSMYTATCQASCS

As for `CC[C@H](C)[C@H](NC(=O)[C@H](Cc1ccccc1)NC(=O)[C@H](CCC(=O)O)NC(=O)[C@H](CCCNC(=N)N)NC(=O)[C@H](C)NC(=O)[C@H](C)NC(=O)[C@H](CCC(N)=O)NC(=O)[C@H](CCC(=O)O)NC(=O)[C@H](CCC(=O)O)NC(=O)[C@H](CC(C)C)NC(=O)[C@H](Cc1ccc(O)cc1)NC(=O)[C@H](CO)NC(=O)[C@H](CO)NC(=O)[C@@H](NC(=O)[C@H](CC(=O)O)NC(=O)[C@H](CO)NC(=O)[C@@H](NC(=O)[C@H](Cc1ccccc1)NC(=O)[C@@H](NC(=O)CNC(=O)[C@H](CCC(=O)O)NC(=O)[C@H](C)NC(=O)CCc1c[nH]cn1)[C@@H](C)O)[C@@H](C)O)C(C)C)C(=O)N[C@@H](C)C(=O)N[C@@H](Cc1c[nH]c2ccccc12)C(=O)N[C@@H](CC(C)C)C(=O)N[C@H](C(=O)N[C@@H](CCCNC(=N)N)C(=O)NCC(=O)N[C@@H](CCCNC(=N)N)C(=O)N[C@@H](CCCCNC(=O)COCCOCCNC(=O)COCCOCCNC(=O)CC[C@H](NC(=O)CCCCCCCCCCCCCCCCC(=O)O)C(=O)O)C(=O)O)C(C)C` [Example 29, N-epsilon37-[2-(2-{2-[2-(2-{2-[(S)-4-Carboxy-4-(17-carboxy-heptadecanoylamino)-butyrylamino]-ethoxy}-ethoxy)-acetylamino]-ethoxy}-ethoxy)-acetyl] [desaminoHis7,Glu22,Arg26,Arg34,Lys37] GLP-1-(7-37)], the EC50 was 0.1 nM in test [1] (setting [3]) and 400 to 800 nM in test [2].

Turning to `CC[C@H](C)[C@H](NC(=O)[C@H](Cc1ccccc1)NC(=O)[C@H](CCC(=O)O)NC(=O)[C@H](CCCNC(=N)N)NC(=O)[C@H](C)NC(=O)[C@H](C)NC(=O)[C@H](CCC(N)=O)NC(=O)[C@H](CCC(=O)O)NC(=O)[C@H](CCC(=O)O)NC(=O)[C@H](CC(C)C)NC(=O)[C@H](Cc1ccc(O)cc1)NC(=O)[C@H](CO)NC(=O)[C@H](CO)NC(=O)[C@@H](NC(=O)[C@H](CC(=O)O)NC(=O)[C@H](CO)NC(=O)[C@@H](NC(=O)[C@H](Cc1ccccc1)NC(=O)[C@@H](NC(=O)CNC(=O)[C@H](CCC(=O)O)NC(=O)C(C)(C)NC(=O)[C@@H](N)Cc1c[nH]cn1)[C@@H](C)O)[C@@H](C)O)C(C)C)C(=O)N[C@@H](C)C(=O)N[C@@H](Cc1c[nH]c2ccccc12)C(=O)N[C@@H](CC(C)C)C(=O)N[C@H](C(=O)N[C@@H](CCCNC(=N)N)C(=O)NCC(=O)N[C@@H](CCCNC(=N)N)C(=O)N[C@@H](CCCCNC(=O)COCCOCCNC(=O)COCCOCCNC(=O)CC[C@H](NC(=O)[C@H]1CC[C@H](CNC(=O)CCCCCCCCCCCCCCCCCCC(=O)O)CC1)C(=O)O)C(=O)O)C(C)C` [Example 32, N-epsilon37-[2-(2-{2-[2-(2-{2-[(S)-4-Carboxy-4-({trans-4-[(19-carboxynonadecanoylamino)methyl]cyclohexanecarbonyl}amino)butyrylamino]ethoxy}ethoxy)acetylamino]ethoxy}ethoxy)acetyl][Aib8,Glu22,Arg26,Arg34,Lys37]GLP-1-(7-37)], the EC50 in test [1] is 0.46 nM; in test [2], 1 to 100 nM.

Turning to `CC[C@H](C)[C@H](NC(=O)[C@H](Cc1ccccc1)NC(=O)[C@H](CCC(=O)O)NC(=O)[C@H](CCCNC(=N)N)NC(=O)[C@@H](NC(=O)[C@H](C)NC(=O)[C@H](CCC(N)=O)NC(=O)[C@H](CCC(=O)O)NC(=O)[C@H](CCC(=O)O)NC(=O)[C@H](CCCCN)NC(=O)[C@H](Cc1ccc(O)cc1)NC(=O)[C@H](CO)NC(=O)[C@H](CO)NC(=O)[C@@H](NC(=O)[C@H](CC(=O)O)NC(=O)[C@H](CO)NC(=O)[C@@H](NC(=O)[C@H](Cc1ccccc1)NC(=O)[C@@H](NC(=O)CNC(=O)[C@H](CCC(=O)O)NC(=O)C(C)(C)NC(=O)[C@@H](N)Cc1c[nH]cn1)[C@@H](C)O)[C@@H](C)O)C(C)C)C(C)C)C(=O)N[C@@H](C)C(=O)N[C@@H](CCCCNC(=O)COCCOCCNC(=O)COCCOCCNC(=O)CC[C@H](NC(=O)CCCCCCCCCCCCCCCCC(=O)O)C(=O)O)C(=O)N[C@@H](CC(C)C)C(=O)N[C@H](C(=O)N[C@@H](CCCNC(=N)N)C(=O)N[C@@H](CCCNC(=N)N)C(=O)N[C@@H](CCCNC(=N)N)C(=O)N[C@@H](CCCNC(=N)N)C(=O)O)C(C)C` [Example 34, N-epsilon31-[2-(2-{2-[2-(2-{2-[(S)-4-Carboxy-4-(17-carboxyheptadecanoylamino)butyrylamino]ethoxy}ethoxy)acetylamino]ethoxy}ethoxy)acetyl][Aib8,Glu22,Val25,Arg26,Lys31,Arg34,Arg35,Arg37]GLP-1-(7-37)] (H-H[Aib]EGTFTSDVSSYKEEQAVREFIAK([AEEA-AEEA-γGlu-C18 diacid])LVRRRR-OH), the EC50 in test [1] (setting [3]) is 1.27 nM; in test [2], > 2000 nM.

Consider `CC[C@H](C)[C@H](NC(=O)[C@H](Cc1ccccc1)NC(=O)[C@H](CCC(=O)O)NC(=O)[C@H](CCCNC(=N)N)NC(=O)[C@@H](NC(=O)[C@H](C)NC(=O)[C@H](CCC(N)=O)NC(=O)[C@H](CCC(=O)O)NC(=O)[C@H](CCC(=O)O)NC(=O)[C@H](CCCCN)NC(=O)[C@H](Cc1ccc(O)cc1)NC(=O)[C@H](CO)NC(=O)[C@H](CO)NC(=O)[C@@H](NC(=O)[C@H](CC(=O)O)NC(=O)[C@H](CO)NC(=O)[C@@H](NC(=O)[C@H](Cc1ccccc1)NC(=O)[C@@H](NC(=O)CNC(=O)[C@H](CCC(=O)O)NC(=O)C(C)(C)NC(=O)[C@@H](N)Cc1c[nH]cn1)[C@@H](C)O)[C@@H](C)O)C(C)C)C(C)C)C(=O)N[C@@H](C)C(=O)N[C@@H](CCCCNC(=O)COCCOCCNC(=O)COCCOCCNC(=O)CC[C@H](NC(=O)CCCCCCCCCCCCCCCCC(=O)O)C(=O)O)C(=O)N[C@@H](CC(C)C)C(=O)N[C@H](C(=O)N[C@@H](CCCNC(=N)N)C(=O)N[C@@H](CCCNC(=N)N)C(=O)N[C@@H](CCCNC(=N)N)C(=O)N[C@@H](CCCNC(=N)N)C(=O)N[C@@H](CCCNC(=N)N)C(=O)N[C@@H](CCCNC(=N)N)C(=O)N[C@@H](CCCNC(=N)N)C(=O)N[C@@H](CCCNC(=N)N)C(=O)O)C(C)C` [Example 35] (H-H[Aib]EGTFTSDVSSYKEEQAVREFIAK([AEEA-AEEA-γGlu-C18 diacid])LVRRRRRRRR-OH), for which the EC50 in test [1] (setting [3]) was 0.74 nM; in test [2] it was 800 to 1500 nM.
